Experimental data taken from US5375693A (Sepracor, Inc., priority 1994, dated 1994).

Tests used:
[1] = molecular target: histamine H1 -receptor (Bos taurus, UniProt P30546); assay: biochemical; details: pH 7.5, read-out: Percent Inhibition
Experimental: 32:1653-1663 (1979). Briefly, membranes from bovine cerebellum were incubated with [^3 H]pyrilamine and varying concentrations of test compound. The reactions were carried out in 50 mM sodium phosphate buffer (pH 7.5) at 25° C. for 30 minutes. The reaction was terminated by rapid vacuum filtration onto glass fiber filters. Radioactivity trapped on the filters was determined and compared to control values to acertain the interaction of the test compound with the H1 -receptor.

[2] = tested on: histamine induced lethality; details: guinea pig; cited from earlier work
[3] = tested on: allergic rhinitis; details: compared with chlorpheniramine; cited from earlier work
[4] = tested on: airway resistance caused by LTD4 (leukotriene D4); details: guinea pigs; cited from earlier work
[5] = in vivo; cited from earlier work
[6] = cited from earlier work

histamine H1 -receptor, sequence (P30546 whole entry): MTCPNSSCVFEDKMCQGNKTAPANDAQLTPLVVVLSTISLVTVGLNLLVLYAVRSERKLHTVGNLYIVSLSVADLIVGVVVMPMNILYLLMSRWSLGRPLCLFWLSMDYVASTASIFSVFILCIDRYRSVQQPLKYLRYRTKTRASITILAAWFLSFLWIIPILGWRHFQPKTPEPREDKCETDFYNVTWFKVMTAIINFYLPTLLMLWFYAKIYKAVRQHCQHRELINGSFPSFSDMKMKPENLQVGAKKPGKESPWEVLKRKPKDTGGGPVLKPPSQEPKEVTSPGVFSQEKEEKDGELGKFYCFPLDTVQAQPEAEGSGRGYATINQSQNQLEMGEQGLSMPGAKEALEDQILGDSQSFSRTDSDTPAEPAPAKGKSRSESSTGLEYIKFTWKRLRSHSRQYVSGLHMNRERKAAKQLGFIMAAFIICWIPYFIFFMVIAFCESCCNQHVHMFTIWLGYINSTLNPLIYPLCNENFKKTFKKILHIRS

Structure (SMILES) | inhibition at 0.001 µM [1] [%] | inhibition at 0.1 µM [1] [%] | inhibition at 10 µM [1] [%] | protection against histamine induced lethality [2] | clinical efficacy in allergic rhinitis [3] | increase in airway resistance caused by LTD4 [4] | absorption [5] | metabolism [5] | adverse effects: cardiac arrhythmias ([6]; administration to a human) | occurrence of cardiac arrhythmias ([6]; coadministration with other drugs such as ketoconazole and erythromycin or upon overdose) | sedation, gastrointestinal distress, dry mouth, and constipation or diarrhea ([6]; in vivo)
CC(C)(C(=O)O)c1ccc([C@H](O)CCCN2CCC(C(O)(c3ccccc3)c3ccccc3)CC2)cc1 [R-(+)-terfenadine carboxylate] | 12.4 | 45.2 | 87.3 |  |  |  |  |  |  |  | 
CC(C)(C)c1ccc(C(O)CCCN2CCC(C(O)(c3ccccc3)c3ccccc3)CC2)cc1 (racemic) [Terfenadine] |  |  |  | protects against histamine induced lethality in the guinea pig | slightly less effective than chlorpheniramine | suppressed | well absorbed | extensively metabolized | cardiac arrhythmias, including ventricular tachyarrhythmias, torsades de pointes, and ventricular fibrillation | an increase in the occurrence of these cardiac arrhythmias | relatively less sedation, gastrointestinal distress, dry mouth, and constipation or diarrhea
CC(C)(C(=O)O)c1ccc([C@@H](O)CCCN2CCC(C(O)(c3ccccc3)c3ccccc3)CC2)cc1 [S-(-)-terfenadine carboxylate] | 8.1 | 54.1 | 88.7 |  |  |  |  |  |  |  | 
